What was measured:
Assay type in all cases: in vivo
[1] = test system: Diabrotica Balteata (Corn Root Worm); assay: Example B1: Diabrotica balteata (corn root worm), sprayed maize sprouts; conditions: 96 h, application rate of 200 ppm, L2 larvae, 4 days after infestation, in comparison to untreated samples, read-out: control in at least one of the two categories (mortality or growth inhibition)
Protocol: Example B1: Diabrotica Balteata (Corn Root Worm)
Maize sprouts placed onto an agar layer in 24-well microtiter plates were treated with aqueous test solutions prepared from 10'000 ppm DMSO stock solutions by spraying. After drying, the plates were infested with L2 larvae (6 to 10 per well). The samples were assessed for mortality and growth inhibition in comparison to untreated samples 4 days after infestation.
The following compounds gave an effect of at least 80% control in at least one of the two categories (mortality or growth inhibition) at an application rate of 200 ppm: […]

[2] = test system: Plutella xylostella (Diamond Back Moth); assay: Example B5: Plutella xylostella (diamond back moth), artificial diet; conditions: 192 h, application rate of 200 ppm, eggs, 8 days after infestation, in comparison to untreated samples, read-out: effect in at least one of the two categories (mortality or growth inhibition)
Protocol: Example B5: Plutella xylostella (Diamond Back Moth)
24-well microtiter plates with artificial diet were treated with aqueous test solutions prepared from 10'000 ppm DMSO stock solutions by pipetting. After drying, Plutella eggs were pipetted through a plastic stencil onto a gel blotting paper and the plate was closed with it. The samples were assessed for mortality and growth inhibition in comparison to untreated samples 8 days after infestation.
The following compounds gave an effect of at least 80% in at least one of the two categories (mortality or growth inhibition) at an application rate of 200 ppm: […]

[3] = test system: Chilo suppressalis (Striped Rice Stemborer); assay: Example B4: Chilo suppressalis (striped rice stemborer), artificial diet; conditions: 144 h, application rate of 200 ppm, L2 larvae, 6 days after infestation, in comparison to untreated samples, read-out: control in at least one of the three categories (mortality, anti-feedant or growth inhibition)
Protocol: Example B4: Chilo suppressalis (Striped Rice Stemborer)
24-well microtiter plates with artificial diet were treated with aqueous test solutions prepared from 10'000 ppm DMSO stock solutions by pipetting. After drying, the plates were infested with L2 larvae (6-8 per well). The samples were assessed for mortality, anti-feeding effect, and growth inhibition in comparison to untreated samples 6 days after infestation. Control of Chilo suppressalis by a test sample is given when at least one of the categories mortality, anti-feedant effect, and growth inhibition is higher than the untreated sample.

[4] = test system: Spodoptera littoralis (Egyptian Cotton Leaf Worm); assay: Example B9: Spodoptera littoralis (Egyptian cotton leaf worm), sprayed cotton leaf discs; conditions: foliar, 72 h, application rate of 200 ppm, L1 larvae, 3 days after infestation, in comparison to untreated samples, read-out: control in at least one of the three categories (mortality, anti-feedant effect, or growth inhibition)
Protocol: Example B9: Spodoptera littoralis (Egyptian Cotton Leaf Worm)
Cotton leaf discs were placed onto agar in 24-well microtiter plates and sprayed with aqueous test solutions prepared from 10'000 ppm DMSO stock solutions. After drying the leaf discs were infested with five L1 larvae. The samples were assessed for mortality, anti-feeding effect, and growth inhibition in comparison to untreated samples 3 days after infestation. Control of Spodoptera littoralis by a test sample is given when at least one of the categories mortality, anti-feedant effect, and growth inhibition is higher than the untreated sample.

[5] = test system: Myzus persicae (Green Peach Aphid); assay: Example B8: Myzus persicae (green peach aphid), intrinsic activity; conditions: 120 h, test rate of 12 ppm, mixed with sucrose solution, 5 days after infestation
Text: Example B8: Myzus persicae (Green Peach Aphid): Intrinsic Activity
Test compounds prepared from 10'000 ppm DMSO stock solutions were applied by pipette into 24-well microtiter plates and mixed with sucrose solution. The plates were closed with a stretched Parafilm. A plastic stencil with 24 holes was placed onto the plate and infested pea seedlings were placed directly on the Parafilm. The infested plate was closed with a gel blotting paper and another plastic stencil and then turned upside down. The samples were assessed for mortality 5 days after infestation.

[6] = test system: Frankliniella occidentalis (Western Flower Thrips); assay: Example B3: Frankliniella occidentalis (western flower thrips), feeding/contact activity; conditions: 168 h, application rate of 200 ppm, population of mixed ages, 7 days after infestation
Protocol: Example B3: Frankliniella occidentalis (Western Flower Thrips):Feeding/Contact Activity
Sunflower leaf discs were placed on agar in 24-well microtiter plates and sprayed with aqueous test solutions prepared from 10'000 DMSO stock solutions. After drying the leaf discs were infested with a Frankliniella population of mixed ages. The samples were assessed for mortality 7 days after infestation.

CC(NC(=O)c1cc(C(F)(F)F)nc(C2(C#N)CC2)c1)c1nc(Br)nn1-c1ccc(F)cn1 (stereo not shown) [Compound P1, N-[1-[5-bromo-2-(5-fluoro-2-pyridyl)-1,2,4-triazol-3-yl]ethyl]-2-(1-cyanocyclopropyl)-6-(trifluoromethyl)pyridine-4-carboxamide]
≥ 80%: percent control (mortality or growth inhibition) at 200 ppm [1] | percent effect (mortality or growth inhibition) at 200 ppm [2] | percent control (mortality, anti-feedant effect or growth inhibition) at 200 ppm [3] | percent control (mortality, anti-feedant effect or growth inhibition) at 200 ppm [4]

CC(NC(=O)c1cc(C(F)(F)F)cc(C(F)(F)C2CC2)c1)c1nc(Br)nn1-c1ncccn1 (stereo not shown) [Compound P4, N-[1-(5-bromo-2-pyrimidin-2-yl-1,2,4-triazol-3-yl)ethyl]-3-[cyclopropyl(difluoro)methyl]-5-(trifluoromethyl)benzamide]
≥ 80%: percent control (mortality or growth inhibition) at 200 ppm [1] | percent effect (mortality or growth inhibition) at 200 ppm [2] | percent control (mortality, anti-feedant effect or growth inhibition) at 200 ppm [3] | percent control (mortality, anti-feedant effect or growth inhibition) at 200 ppm [4]

CC(NC(=O)c1cc(C2CC2)cc(C(F)(F)F)c1)c1nc(Br)nn1-c1ncccn1 (stereo not shown) [Compound P6, N-[1-(5-bromo-2-pyrimidin-2-yl-1,2,4-triazol-3-yl)ethyl]-3-cyclopropyl-5-(trifluoromethyl)benzamide]
≥ 80%: percent control (mortality or growth inhibition) at 200 ppm [1] | percent effect (mortality or growth inhibition) at 200 ppm [2] | percent control (mortality, anti-feedant effect or growth inhibition) at 200 ppm [3] | percent control (mortality, anti-feedant effect or growth inhibition) at 200 ppm [4]

CC(NC(=O)c1cc(C2CC2)nc(C(F)(F)F)c1)c1nc(Br)nn1-c1ncccn1 (stereo not shown) [Compound P5, N-[1-(5-bromo-2-pyrimidin-2-yl-1,2,4-triazol-3-yl)ethyl]-2-cyclopropyl-6-(trifluoromethyl)pyridine-4-carboxamide]
≥ 80%: percent control (mortality or growth inhibition) at 200 ppm [1] | percent effect (mortality or growth inhibition) at 200 ppm [2] | percent control (mortality, anti-feedant effect or growth inhibition) at 200 ppm [3] | percent control (mortality, anti-feedant effect or growth inhibition) at 200 ppm [4]

CC(NC(=O)c1cc(C2CC2)cc(C(F)(F)F)c1)c1nc(Br)nn1-c1ccc(F)cn1 (stereo not shown) [Compound P8, N-[1-[5-bromo-2-(5-fluoro-2-pyridyl)-1,2,4-triazol-3-yl]ethyl]-3-cyclopropyl-5-(trifluoromethyl)benzamide]
≥ 80%: percent effect (mortality or growth inhibition) at 200 ppm [2] | percent control (mortality, anti-feedant effect or growth inhibition) at 200 ppm [3]

CC(NC(=O)c1cc(C(F)(F)F)nc(C2(C#N)CC2)c1)c1nc(Br)nn1-c1ncccn1 (stereo not shown) [Compound P3, N-[1-(5-bromo-2-pyrimidin-2-yl-1,2,4-triazol-3-yl)ethyl]-2-(1-cyanocyclopropyl)-6-(trifluoromethyl)pyridine-4-carboxamide]
≥ 80%: percent control (mortality or growth inhibition) at 200 ppm [1] | percent effect (mortality or growth inhibition) at 200 ppm [2] | percent control (mortality, anti-feedant effect or growth inhibition) at 200 ppm [3] | mortality at 12 ppm [5] | mortality at 200 ppm [6] | percent control (mortality, anti-feedant effect or growth inhibition) at 200 ppm [4]

CC(NC(=O)c1cc(C2CC2C(F)(F)F)cc(C(F)(F)F)c1)c1nc(Br)nn1-c1ncccn1 (stereo not shown) [Compound P7, N-[1-(5-bromo-2-pyrimidin-2-yl-1,2,4-triazol-3-yl)ethyl]-3-(trifluoromethyl)-5-[2-(trifluoromethyl)cyclopropyl]benzamide]
≥ 80%: percent control (mortality or growth inhibition) at 200 ppm [1] | percent effect (mortality or growth inhibition) at 200 ppm [2] | percent control (mortality, anti-feedant effect or growth inhibition) at 200 ppm [3] | percent control (mortality, anti-feedant effect or growth inhibition) at 200 ppm [4]
